Experimental data taken from article PMC8201324, “Pyrazoles and Pyrazolines as Anti-Inflammatory Agents” (Molecules, 2021).

How the values were obtained:
[1] = target: T1, soybean lipoxygenase (Glycine max, UniProt P08170); assay: Soybean lipoxygenase inhibition study; assay type: biochemical; conditions: sodium linoleate 0.1 mM; for LOX % Inhibition at 100 µM / inhibition at 100 µM: compound 100 µM; for inhibition at 100 µM: read-out: LOX % Inhibition at 100 µM
T1 construct: purchased Sigma Chemical, Co
T1 sequence (P08170 1-839): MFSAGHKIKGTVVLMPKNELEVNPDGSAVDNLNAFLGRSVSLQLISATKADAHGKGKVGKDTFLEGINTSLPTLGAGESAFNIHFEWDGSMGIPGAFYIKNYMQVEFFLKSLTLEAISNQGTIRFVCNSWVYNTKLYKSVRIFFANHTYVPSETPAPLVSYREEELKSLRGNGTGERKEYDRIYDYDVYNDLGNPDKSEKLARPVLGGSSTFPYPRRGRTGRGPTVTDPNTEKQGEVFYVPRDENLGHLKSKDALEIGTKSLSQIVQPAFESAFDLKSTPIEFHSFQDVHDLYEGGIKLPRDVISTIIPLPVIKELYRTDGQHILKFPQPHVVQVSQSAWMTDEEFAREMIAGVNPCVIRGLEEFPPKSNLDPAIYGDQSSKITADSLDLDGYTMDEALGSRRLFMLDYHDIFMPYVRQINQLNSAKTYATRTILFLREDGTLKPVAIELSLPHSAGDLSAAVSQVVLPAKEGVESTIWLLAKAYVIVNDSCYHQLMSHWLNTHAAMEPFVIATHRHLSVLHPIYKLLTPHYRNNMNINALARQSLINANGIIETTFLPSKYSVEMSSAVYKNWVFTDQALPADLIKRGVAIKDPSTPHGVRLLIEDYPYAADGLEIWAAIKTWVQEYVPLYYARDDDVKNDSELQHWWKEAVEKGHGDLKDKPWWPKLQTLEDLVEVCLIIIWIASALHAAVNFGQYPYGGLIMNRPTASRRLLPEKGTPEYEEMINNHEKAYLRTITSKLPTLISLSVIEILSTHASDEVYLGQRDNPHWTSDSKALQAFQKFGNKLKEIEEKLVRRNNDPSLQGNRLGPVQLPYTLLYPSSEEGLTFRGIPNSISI
Protocol: Lipoxygenase (LOX) is the key enzyme implicated in membrane lipid peroxidation by forming hydroperoxides, thus it is considered a target for inflammatory diseases. […] For the in vitro study, soybean lipoxygenase was used, based on the homology to mammalian lipoxygenase. […] A stock solution (1% DMSO in the appropriate buffer with the tested compound diluted under sonication) was prepared for the in vitro assays from which several dilutions were made with the appropriate buffer. […] The stock solutions of the compounds were incubated with sodium linoleate (0.1 mM) and 0.2 mL of soybean lipoxygenase solution (1/9 × 10^-4 w/v in saline) at room temperature. In vitro test was performed as previously published.

[2] = ABTS+ decolorization assay for antioxidant activity; assay type: biochemical
Excerpt: Pyrazolines 2d and 2e which are the most lipophilic compounds, showing antioxidant activity using the ABTS radical cation (ABTS^•+) generated through potassium persulfate by oxidation with no participation of an intermediary radical. This reduction is completed by adding electron-donating antioxidants. It seems that lipophilicity influences the activity, since both present high lipophilicity values.
(§1) A stock solution (1% DMSO in the appropriate buffer with the tested compound diluted under sonication) was prepared for the in vitro assays from which several dilutions were made with the appropriate buffer. The in vitro experiments were performed at least in triplicate, and the standard deviation of absorbance was less than 10% of the mean.
The ABTS radical cation (ABTS^+•) was generated by mixing ABTS stock solution in water (7 mM) with potassium persulfate (2.45 mM) and left in the dark at room temperature for 12–16 h before use. The results are recorded immediately after the mixing solutions at 734 nm. The results were compared to the appropriate standard inhibitor Trolox (Table 4).

[3] = Reducing activity of the stable radical DPPH; assay type: biochemical
Protocol: The novel derivatives were studied for their interaction with the stable 2,2-diphenyl-1-picrylhydrazyl free radical (DPPH) at concentrations 50 µM, 100 µM, 200 µM and after 20 and 60 min (Table 3). This assay is based on the reduction of the DPPH by transferring an electron from the antioxidant. […] However, it seems that the interaction is dependent on the concentration and on the reaction time. From this point of view, it can be concluded that the acetyl pyrazolyl derivatives 2c and 2f seem to present the highest scavenging activities. An increase in concentration favors the activity. […] As for compounds 2a, 2b, 2c and 2f, activity seems to be time dependent at 200 µM. […] The presence of a chlorine group in 2e pyrazoline leads to an activity increase (compared to 2d) in concentration 200 µM. The acetyl derivative 2f presents better activity than 2b at 200 µM.
as §1
A stock solution (10 mM) of the novel derivatives in DMSO was prepared and an equal volume of it was added to a solution of DPPH in absolute ethanol to reach final concentrations 50, 100 µM and 200 µM. The absorbance was recorded at 517 nm, after 20 and 60 min at room temperature (Table 3).

[4] = Experimental determination of lipophilicity as RM values (RP-TLC); assay type: physicochemical; parameters: key: RM = log[(1/Rf) − 1] from RP-TLC Rf values; conditions: methanol/water 70/30 v/v, 24 °C, average of at least five measurements
Excerpt: Lipophilicity is the key physicochemical parameter of a bioactive molecule, linking solubility, ligand-target binding interactions and membrane permeability with absorption, distribution, bioavailability, metabolism and elimination (ADME) and toxicological effects, crucial for its biological activity. The reverse phase thin layer chromatography (RPTLC) method was used for the experimental determination of the lipophilic character of the synthesized compounds as RM values (Table 2). Lipophilicity was also theoretically calculated as clog P values, using the CLOGP Program of Biobyte Corp. and as LPSP-lipophilicity values through Spartan v.5.1.3. (Wavefunction Inc., Irvine, CA, USA). According to the calculated clog P values, as well as LPSP, the most lipophilic compounds were the compounds 2c, 2d, 2e and 2g. This observation was supported by the RM values (with the exception of 2g).
Lipophilicity as RM values was determined through reversed phase TLC (RP-TLC) on silica gel plates impregnated with 5% (v/v) liquid paraffin in light petroleum ether. Methanol/water mixture (70/30, v/v) was used a mobile phase. Closed chromatography tanks saturated with the mobile phase at 24 °C were used for the development of the plates while the spots were detected under UV light. For the determination of RM values, five individual measurements of Rf values were recorded, and the RM values were derived from the equation RM = log [(1/Rf) − 1] [42, 43] (Table 2).

Compound	RM (±SD) [4]	inhibition at 100 µM [1] [%]	melting point [°C]	IC50 ([1]; soybean lipoxygenase, read-out: LOX IC50) [µM]	LOX % Inhibition at 100 µM [1] [%]	ABTS^+ % 100 µM (decolorization activity) [2]	RA% 50 µM 20 min [3] [%]	RA% 50 µM 60 min [3] [%]	RA% 100 µM 20 min [3] [%]	RA% 100 µM 60 min [3] [%]	RA% 200 µM 20 min [3] [%]	RA% 200 µM 60 min [3] [%]
5-(4-((4-bromobenzyl)oxy)phenyl)-3-(4-chlorophenyl)-4,5-dihydro-1H-pyrazole [Compound 2e]	0.87 ± 0.07				16	30%	9.5	13.0	14.8	17.8	25.6	30.1
c1ccc(C2=NNC(c3cccc4ccccc34)C2)cc1 (stereo not shown) [Compound 2a, 5-(naphthalen-1-yl)-3-phenyl-4,5-dihydro-1H-pyrazole]	0.22 ± 0.2	35	45 to 47			no	15.0	20.0	22.9	32.0	37.2	49.3
Brc1ccc(COc2ccc(C3CC(c4ccccc4)=NN3)cc2)cc1 (stereo not shown) [Compound 2d, 5-(4-((4-bromobenzyl)oxy)phenyl)-3-phenyl-4,5-dihydro-1H-pyrazole]	0.72 ± 0.06	13	98 to 100			15%	6.3	9.5	19.4	37.4	9.4	14.9

Further lines, with some results ahead:

RM (±SD) [4]	inhibition at 100 µM [1] [%]	melting point [°C]	IC50 ([1]; soybean lipoxygenase, read-out: LOX IC50) [µM]	Compound	LOX % Inhibition at 100 µM [1] [%]	ABTS^+ % 100 µM (decolorization activity) [2]	RA% 50 µM 20 min [3] [%]	RA% 50 µM 60 min [3] [%]	RA% 100 µM 20 min [3] [%]	RA% 100 µM 60 min [3] [%]	RA% 200 µM 20 min [3] [%]	RA% 200 µM 60 min [3] [%]
0.68 ± 0.05				1-(5-(4-((4-bromobenzyl)oxy)phenyl)-3-(thiophen-2-yl)-1H-pyrazol-1-yl)ethan-1-one [Compound 2c]	42	no	17.1	22.4	41.9	44.0	49.4	59.2
0.23 ± 0.03	17	96 to 98		Clc1ccc(C2=NNC(c3ccc4[nH]ccc4c3)C2)cc1 (stereo not shown) [Compound 2b, 5-(3-(4-chlorophenyl)-4,5-dihydro-1H-pyrazol-5-yl)-1H-indole]		no	19.3	25.0	26.1	33.6	34.9	44.4
−0.07 ± 0.01	3	65 to 66		CC(=O)n1nc(-c2ccccc2)cc1-c1ccc2[nH]ccc2c1 [Compound 2f, 1-(5-(1H-indol-5-yl)-3-phenyl-1H-pyrazol-1-yl)ethan-1-one]		no	21.0	24.7	34.7	38.8	50.1	59.5
−0.59 ± 0.05	60	53 to 55	80	CC(=O)n1nc(-c2ccc(Cl)cc2)cc1-c1cccc2ccccc12 [Compound 2g, 1-(3-(4-chlorophenyl)-5-(naphthalen-1-yl)-1H-pyrazol-1-yl)ethan-1-one]		no	9.0	12.7	11.2	13.6	22.5	27.7
0.41 ± 0.02	26	44 to 46		CC(=O)n1nc(-c2ccccc2)cc1-c1cccc(Oc2ccccc2)c1 [Compound 2h, 1-(5-(3-phenoxyphenyl)-3-phenyl-1H-pyrazol-1-yl)ethan-1-one]		no	6.7	9.5	7.8	9.6	17.2	20.9
